Test results taken from the kinase profiling compilation of Christmann-Franck et al. (2016).

Columns and labels:
Test in all cases: KINOMEscan competition binding
Conditions in all cases: compound 10.0 µM
ACVR2A (human) = ACVR2A (human) (UniProt P27037)
ADCK4 (human) = ADCK4 (human) (UniProt Q96D53)
ALK (human) = ALK (human) (UniProt Q9UM73)
AXL (human) = AXL (human) (UniProt P30530)
BMPR1B (human) = BMPR1B (human) (UniProt O00238)
CAMK2A (human) = CAMK2A (human) (UniProt Q9UQM7)
CAMK2B (human) = CAMK2B (human) (UniProt Q13554)
CDC42BPG (human) = CDC42BPG (human) (UniProt Q6DT37)
CDK19 (human) = CDK19 (human) (UniProt Q9BWU1)
CDK7 (human) = CDK7 (human) (UniProt P50613)
CHEK2 (human) = CHEK2 (human) (UniProt O96017)
CSNK2A2 (human) = CSNK2A2 (human) (UniProt P19784)
DCLK1 (human) = DCLK1 (human) (UniProt O15075)
EIF2AK1 (human) = EIF2AK1 (human) (UniProt Q9BQI3)
EPHA1 (human) = EPHA1 (human) (UniProt P21709)
EPHA2 (human) = EPHA2 (human) (UniProt P29317)
HIPK3 (human) = HIPK3 (human) (UniProt Q9H422)
KDR (human) = KDR (human) (UniProt P35968)
[1] = test system: KIT (human), P10721 [A829P]
MAP2K6 (human) = MAP2K6 (human) (UniProt P52564)
MAP4K5 (human) = MAP4K5 (human) (UniProt Q9Y4K4)
MAPK11 (human) = MAPK11 (human) (UniProt Q15759)
MAPK4 (human) = MAPK4 (human) (UniProt P31152)
MAPK8 (human) = MAPK8 (human) (UniProt P45983)
PIM1 (human) = PIM1 (human) (UniProt P11309)
PRKACA (human) = PRKACA (human) (UniProt P17612)
PTK2B (human) = PTK2B (human) (UniProt Q14289)
RAF1 (human) = RAF1 (human) (UniProt P04049)
ROCK1 (human) = ROCK1 (human) (UniProt Q13464)
RPS6KA2 KD1 (human) = RPS6KA2 KD1 (human) (UniProt Q15349)
SRMS (human) = SRMS (human) (UniProt Q9H3Y6)
SRPK2 (human) = SRPK2 (human) (UniProt P78362)
STK3 (human) = STK3 (human) (UniProt Q13188)
TLK1 (human) = TLK1 (human) (UniProt Q9UKI8)
ULK1 (human) = ULK1 (human) (UniProt O75385)
VRK2 (human) = VRK2 (human) (UniProt Q86Y07)
WEE1 (human) = WEE1 (human) (UniProt P30291)
YES1 (human) = YES1 (human) (UniProt P07947)
EPHA5 (human) = EPHA5 (human) (UniProt P54756)
SYK (human) = SYK (human) (UniProt P43405)

Chain of HIPK3 (human) (Q9H422 whole entry, looked up): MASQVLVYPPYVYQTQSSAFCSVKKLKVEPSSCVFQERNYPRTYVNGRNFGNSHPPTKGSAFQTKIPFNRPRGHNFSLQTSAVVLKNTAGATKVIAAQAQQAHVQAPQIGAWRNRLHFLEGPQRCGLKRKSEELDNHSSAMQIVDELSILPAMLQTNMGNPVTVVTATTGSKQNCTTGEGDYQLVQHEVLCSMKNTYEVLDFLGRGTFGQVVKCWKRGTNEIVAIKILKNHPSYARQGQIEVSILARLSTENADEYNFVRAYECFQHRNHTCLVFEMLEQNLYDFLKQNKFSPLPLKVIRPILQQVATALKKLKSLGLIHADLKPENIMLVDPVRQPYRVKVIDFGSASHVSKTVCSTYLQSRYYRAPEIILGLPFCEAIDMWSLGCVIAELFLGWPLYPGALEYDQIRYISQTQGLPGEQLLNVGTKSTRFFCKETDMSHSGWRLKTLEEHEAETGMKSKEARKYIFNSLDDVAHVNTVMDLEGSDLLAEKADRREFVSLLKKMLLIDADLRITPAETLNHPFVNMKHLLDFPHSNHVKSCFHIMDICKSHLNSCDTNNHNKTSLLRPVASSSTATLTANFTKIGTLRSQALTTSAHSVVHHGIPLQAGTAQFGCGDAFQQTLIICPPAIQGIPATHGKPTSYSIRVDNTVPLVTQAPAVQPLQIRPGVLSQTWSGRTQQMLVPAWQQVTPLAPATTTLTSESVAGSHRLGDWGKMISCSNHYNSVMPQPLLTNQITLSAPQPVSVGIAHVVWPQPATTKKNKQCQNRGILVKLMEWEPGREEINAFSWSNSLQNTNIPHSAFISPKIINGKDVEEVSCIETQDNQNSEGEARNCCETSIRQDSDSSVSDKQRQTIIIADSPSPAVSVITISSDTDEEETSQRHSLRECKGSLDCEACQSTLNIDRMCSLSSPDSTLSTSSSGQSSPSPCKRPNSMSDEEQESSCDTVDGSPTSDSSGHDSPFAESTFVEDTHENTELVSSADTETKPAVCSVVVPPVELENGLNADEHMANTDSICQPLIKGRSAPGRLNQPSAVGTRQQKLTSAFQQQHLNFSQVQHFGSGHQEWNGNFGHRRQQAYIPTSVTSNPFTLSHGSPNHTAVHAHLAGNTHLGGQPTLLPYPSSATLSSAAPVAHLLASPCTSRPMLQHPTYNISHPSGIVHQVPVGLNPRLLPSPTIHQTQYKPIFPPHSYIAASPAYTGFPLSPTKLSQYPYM
Chain of CSNK2A2 (human) (P19784 whole entry, looked up): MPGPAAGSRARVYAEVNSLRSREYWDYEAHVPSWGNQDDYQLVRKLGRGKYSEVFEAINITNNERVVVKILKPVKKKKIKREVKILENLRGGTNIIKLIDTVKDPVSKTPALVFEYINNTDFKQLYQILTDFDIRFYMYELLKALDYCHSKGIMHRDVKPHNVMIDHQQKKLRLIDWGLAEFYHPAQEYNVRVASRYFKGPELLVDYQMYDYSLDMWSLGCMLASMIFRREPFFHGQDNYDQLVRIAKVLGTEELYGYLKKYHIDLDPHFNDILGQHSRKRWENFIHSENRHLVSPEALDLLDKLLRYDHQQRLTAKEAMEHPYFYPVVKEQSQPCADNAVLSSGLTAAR
Chain of ROCK1 (human) (Q13464 whole entry, looked up): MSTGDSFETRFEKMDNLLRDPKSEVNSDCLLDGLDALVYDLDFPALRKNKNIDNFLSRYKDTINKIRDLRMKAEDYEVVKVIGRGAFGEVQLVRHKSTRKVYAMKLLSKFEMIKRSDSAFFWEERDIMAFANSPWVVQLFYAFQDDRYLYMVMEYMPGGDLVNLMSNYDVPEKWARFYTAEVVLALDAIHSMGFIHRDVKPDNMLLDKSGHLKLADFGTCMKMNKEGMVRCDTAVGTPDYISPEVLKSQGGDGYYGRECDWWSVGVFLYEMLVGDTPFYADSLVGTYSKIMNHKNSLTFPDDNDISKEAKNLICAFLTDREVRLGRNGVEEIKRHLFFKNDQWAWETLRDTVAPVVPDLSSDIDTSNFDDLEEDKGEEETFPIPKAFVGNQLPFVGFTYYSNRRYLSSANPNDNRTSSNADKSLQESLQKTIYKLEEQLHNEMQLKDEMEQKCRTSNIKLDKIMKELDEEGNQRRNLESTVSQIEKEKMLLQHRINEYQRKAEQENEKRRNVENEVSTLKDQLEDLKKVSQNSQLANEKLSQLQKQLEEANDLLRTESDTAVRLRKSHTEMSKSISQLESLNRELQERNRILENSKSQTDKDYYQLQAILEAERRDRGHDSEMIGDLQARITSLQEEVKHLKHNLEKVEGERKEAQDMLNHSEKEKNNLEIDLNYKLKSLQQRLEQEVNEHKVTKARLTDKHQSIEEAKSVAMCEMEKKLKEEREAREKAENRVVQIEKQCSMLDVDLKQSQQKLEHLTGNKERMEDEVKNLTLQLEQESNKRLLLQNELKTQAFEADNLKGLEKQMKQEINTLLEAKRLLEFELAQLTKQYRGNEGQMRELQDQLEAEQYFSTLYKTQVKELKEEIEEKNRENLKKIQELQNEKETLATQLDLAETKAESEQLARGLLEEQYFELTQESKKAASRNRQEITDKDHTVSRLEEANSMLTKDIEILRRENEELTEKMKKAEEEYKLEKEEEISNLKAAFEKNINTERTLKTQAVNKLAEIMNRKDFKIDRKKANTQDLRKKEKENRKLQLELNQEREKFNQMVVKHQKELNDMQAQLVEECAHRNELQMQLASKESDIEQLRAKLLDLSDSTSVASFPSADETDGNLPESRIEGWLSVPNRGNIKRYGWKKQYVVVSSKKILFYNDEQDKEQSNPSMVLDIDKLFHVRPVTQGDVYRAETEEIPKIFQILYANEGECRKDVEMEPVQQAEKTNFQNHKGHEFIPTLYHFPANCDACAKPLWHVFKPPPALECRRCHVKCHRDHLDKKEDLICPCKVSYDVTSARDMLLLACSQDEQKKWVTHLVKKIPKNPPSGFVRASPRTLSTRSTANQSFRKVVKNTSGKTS
Chain of TLK1 (human) (Q9UKI8 whole entry, looked up): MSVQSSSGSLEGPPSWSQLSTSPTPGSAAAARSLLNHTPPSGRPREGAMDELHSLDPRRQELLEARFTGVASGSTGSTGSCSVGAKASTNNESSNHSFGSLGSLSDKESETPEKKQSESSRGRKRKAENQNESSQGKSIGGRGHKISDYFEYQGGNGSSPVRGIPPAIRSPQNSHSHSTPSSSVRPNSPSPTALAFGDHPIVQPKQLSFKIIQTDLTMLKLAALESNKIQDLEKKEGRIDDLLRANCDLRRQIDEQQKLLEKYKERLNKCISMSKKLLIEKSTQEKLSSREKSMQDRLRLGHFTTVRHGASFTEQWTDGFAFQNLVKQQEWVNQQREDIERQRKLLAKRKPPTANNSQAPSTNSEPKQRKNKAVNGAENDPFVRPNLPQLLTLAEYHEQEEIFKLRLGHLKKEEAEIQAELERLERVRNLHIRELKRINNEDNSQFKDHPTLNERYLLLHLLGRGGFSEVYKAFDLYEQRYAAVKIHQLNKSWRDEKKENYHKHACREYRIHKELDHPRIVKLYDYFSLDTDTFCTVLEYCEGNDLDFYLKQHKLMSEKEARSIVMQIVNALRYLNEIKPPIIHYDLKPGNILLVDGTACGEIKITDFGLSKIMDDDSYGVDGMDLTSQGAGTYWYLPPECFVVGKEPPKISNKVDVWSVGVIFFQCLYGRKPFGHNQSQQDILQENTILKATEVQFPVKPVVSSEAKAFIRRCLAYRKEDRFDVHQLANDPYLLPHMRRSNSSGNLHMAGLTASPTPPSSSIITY
Chain of MAPK4 (human) (P31152 whole entry, looked up): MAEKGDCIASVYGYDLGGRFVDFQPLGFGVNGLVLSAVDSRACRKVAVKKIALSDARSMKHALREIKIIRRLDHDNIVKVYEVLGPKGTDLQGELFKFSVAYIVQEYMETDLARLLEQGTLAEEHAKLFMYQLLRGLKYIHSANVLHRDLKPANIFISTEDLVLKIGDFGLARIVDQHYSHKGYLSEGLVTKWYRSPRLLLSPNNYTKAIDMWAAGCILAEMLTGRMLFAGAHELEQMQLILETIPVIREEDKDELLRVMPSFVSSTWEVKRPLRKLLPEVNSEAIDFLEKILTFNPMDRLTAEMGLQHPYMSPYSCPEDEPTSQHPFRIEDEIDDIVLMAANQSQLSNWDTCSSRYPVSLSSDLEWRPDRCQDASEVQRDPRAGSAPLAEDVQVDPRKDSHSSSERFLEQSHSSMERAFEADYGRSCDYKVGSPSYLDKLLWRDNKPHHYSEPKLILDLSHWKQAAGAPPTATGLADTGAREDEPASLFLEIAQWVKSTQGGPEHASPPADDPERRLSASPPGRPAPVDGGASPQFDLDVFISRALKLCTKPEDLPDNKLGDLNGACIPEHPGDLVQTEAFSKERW
Chain of RAF1 (human) (P04049 whole entry, looked up): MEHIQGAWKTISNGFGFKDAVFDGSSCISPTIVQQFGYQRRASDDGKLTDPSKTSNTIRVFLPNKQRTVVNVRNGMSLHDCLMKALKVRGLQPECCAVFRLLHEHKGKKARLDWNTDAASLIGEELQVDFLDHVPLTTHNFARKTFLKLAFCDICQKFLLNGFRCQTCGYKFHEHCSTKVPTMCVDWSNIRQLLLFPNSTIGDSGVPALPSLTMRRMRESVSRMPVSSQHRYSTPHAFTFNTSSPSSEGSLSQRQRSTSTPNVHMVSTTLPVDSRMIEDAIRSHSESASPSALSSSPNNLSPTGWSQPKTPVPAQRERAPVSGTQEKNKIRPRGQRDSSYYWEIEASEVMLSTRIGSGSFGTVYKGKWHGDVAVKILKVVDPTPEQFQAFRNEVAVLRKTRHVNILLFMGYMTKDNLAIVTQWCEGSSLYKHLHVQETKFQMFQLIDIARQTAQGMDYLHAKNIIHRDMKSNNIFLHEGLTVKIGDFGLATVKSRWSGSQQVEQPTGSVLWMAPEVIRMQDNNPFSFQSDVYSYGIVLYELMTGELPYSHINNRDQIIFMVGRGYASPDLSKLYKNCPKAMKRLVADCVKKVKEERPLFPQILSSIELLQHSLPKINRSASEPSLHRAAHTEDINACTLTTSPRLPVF

Row | Structure (SMILES) | kinase still bound, per cent of control (ACVR2A (human)) [%] | kinase still bound, per cent of control (ADCK4 (human)) [%] | kinase still bound, per cent of control (AXL (human)) [%] | kinase still bound, per cent of control (BMPR1B (human)) [%] | kinase still bound, per cent of control (CAMK2A (human)) [%] | kinase still bound, per cent of control (CDC42BPG (human)) [%] | kinase still bound, per cent of control (CDK19 (human)) [%] | kinase still bound, per cent of control (CDK7 (human)) [%] | kinase still bound, per cent of control (CHEK2 (human)) [%] | kinase still bound, per cent of control (CSNK2A2 (human)) [%] | kinase still bound, per cent of control (DCLK1 (human)) [%] | kinase still bound, per cent of control (EIF2AK1 (human)) [%] | kinase still bound, per cent of control (EPHA1 (human)) [%] | kinase still bound, per cent of control (EPHA2 (human)) [%] | kinase still bound, per cent of control (HIPK3 (human)) [%] | kinase still bound, per cent of control [1] [%] | kinase still bound, per cent of control (MAP2K6 (human)) [%] | kinase still bound, per cent of control (MAPK11 (human)) [%] | kinase still bound, per cent of control (MAPK4 (human)) [%] | kinase still bound, per cent of control (MAPK8 (human)) [%] | other results
1 | CCN(CCO)CCCOc1ccc2c(Nc3cc(CC(=O)Nc4cccc(F)c4)[nH]n3)ncnc2c1 | 100 | 83 | 1.4 | 77 | 78 | 100 | 100 | 15 | 100 | 86 | 51 | 5.2 | 100 | 76 | 29 | 50 | 99 | 100 | 100 | 59 | kinase still bound, per cent of control (ALK (human)): 98%; kinase still bound, per cent of control (CAMK2B (human)): 84%; kinase still bound, per cent of control (KDR (human)): 2.7%; kinase still bound, per cent of control (MAP4K5 (human)): 0.95%; kinase still bound, per cent of control (PIM1 (human)): 100%; kinase still bound, per cent of control (PRKACA (human)): 100%; kinase still bound, per cent of control (PTK2B (human)): 100%; kinase still bound, per cent of control (RAF1 (human)): 100%; kinase still bound, per cent of control (ROCK1 (human)): 67%; kinase still bound, per cent of control (RPS6KA2 KD1 (human)): 80%; kinase still bound, per cent of control (SRMS (human)): 29%; kinase still bound, per cent of control (SRPK2 (human)): 92%; kinase still bound, per cent of control (STK3 (human)): 100%; kinase still bound, per cent of control (TLK1 (human)): 60%; kinase still bound, per cent of control (ULK1 (human)): 76%; kinase still bound, per cent of control (VRK2 (human)): 100%; kinase still bound, per cent of control (WEE1 (human)): 100%; kinase still bound, per cent of control (YES1 (human)): 42%
2 | CCc1nc(-c2cccc(C)c2)c(-c2ccnc(NC(=O)c3ccccc3)c2)s1 | 70 | 2.2 | 80 | 100 | 89 | 15 | 91 | 100 | 80 | 86 | 96 | 100 | 56 | 66 | 100 | 100 | 79 | 0 | 90 | 0.3 | kinase still bound, per cent of control (EPHA5 (human)): 90%; kinase still bound, per cent of control (KDR (human)): 38%; kinase still bound, per cent of control (PIM1 (human)): 87%; kinase still bound, per cent of control (PRKACA (human)): 85%; kinase still bound, per cent of control (RAF1 (human)): 34%; kinase still bound, per cent of control (ROCK1 (human)): 97%; kinase still bound, per cent of control (RPS6KA2 KD1 (human)): 100%; kinase still bound, per cent of control (SRMS (human)): 83%; kinase still bound, per cent of control (SRPK2 (human)): 73%; kinase still bound, per cent of control (STK3 (human)): 97%; kinase still bound, per cent of control (SYK (human)): 88%; kinase still bound, per cent of control (TLK1 (human)): 82%; kinase still bound, per cent of control (ULK1 (human)): 69%; kinase still bound, per cent of control (VRK2 (human)): 63%; kinase still bound, per cent of control (WEE1 (human)): 100%; kinase still bound, per cent of control (YES1 (human)): 5.6%
3 | CCCS(=O)(=O)Nc1ccc(F)c(C(=O)c2c[nH]c3ncc(Cl)cc23)c1F | 100 | 100 | 40 | 74 | 84 | 74 | 0.8 | 69 | 64 | 12 | 52 | 32 | 100 | 100 | 46 | 67 | 47 | 100 | 100 | 96 | kinase still bound, per cent of control (ALK (human)): 14%; kinase still bound, per cent of control (CAMK2B (human)): 63%; kinase still bound, per cent of control (EPHA5 (human)): 100%; kinase still bound, per cent of control (MAP4K5 (human)): 22%; kinase still bound, per cent of control (PIM1 (human)): 77%; kinase still bound, per cent of control (PRKACA (human)): 94%; kinase still bound, per cent of control (PTK2B (human)): 83%; kinase still bound, per cent of control (RAF1 (human)): 3.4%; kinase still bound, per cent of control (ROCK1 (human)): 77%; kinase still bound, per cent of control (RPS6KA2 KD1 (human)): 67%; kinase still bound, per cent of control (SRMS (human)): 0.05%; kinase still bound, per cent of control (SRPK2 (human)): 100%; kinase still bound, per cent of control (STK3 (human)): 21%; kinase still bound, per cent of control (SYK (human)): 100%; kinase still bound, per cent of control (TLK1 (human)): 58%; kinase still bound, per cent of control (ULK1 (human)): 44%; kinase still bound, per cent of control (VRK2 (human)): 77%; kinase still bound, per cent of control (WEE1 (human)): 100%; kinase still bound, per cent of control (YES1 (human)): 18%
